Data published in US10342766B2, “6-shogaol derivatives and activities thereof” (North Carolina Agricultural and Technical State University, priority 2017, dated 2019).
Values joined by “and” are separate entries in the source; they are usually repeats but may differ in a detail not shown here. Equal entries are not always repeated. “Also recorded” adds a separate entry of the source.

Key:
Nrf2 = Nrf2 reporter activity by Tg(gstp1:GFP) fluorescence in transgenic zebrafish embryos; format: in vivo; conditions: 5 μM, 24-hour treatment from 1 dpf to 2 dpf; olfactory epithelia; relative to vehicle (DMSO = 1.00)
Description: Zebrafish AB transgenic strains Tg(gstp1:GFP) were maintained in a Pentair Aquatic Ecosystem (Apopka, Fla., United States of America) fish housing unit with 14 h light/10 h dark cycle (see Tsujita, T., Li, L., Nakajima, H., Iwamoto, N., Nakajima-Takagi, Y., Ohashi, K., Kawakami, K., Kumagai, Y., Freeman, B. A., Yamamoto, M., and Kobayashi, M. (2011) “Nitro-fatty acids and cyclopentenone prostaglandins share strategies to activate the Keap1-Nrf2 system: a study using green fluorescent protein transgenic zebrafish.” Genes Cells 16, 46-57). The fish embryos were maintained at 28.5° C. in 0.3× Danieau's solution (19.3 mM NaCl, 0.23 mM KCl, 0.13 mM MgSO4, 0.2 mM Ca(NO3)2, 1.7 mM HEPES, pH 7.0) containing 30 μg/ml phenylthiourea (PTU) to inhibit pigmentation. Tg(gstp1:GFP) cross with AB wild-type strain fluorescence embryos were used for the experiment. Zebrafish embryos were washed, dechorionated and anaesthetized before observations, and fluorescence imaging for analysis.
Transgenic zebrafish embryos at 1 day-post-fertilization (dpf) were dechorionated and placed in Petri dishes containing different chemicals diluted in 0.3× Danieau's solution containing PTU. The chemical stock was dissolved in DMSO at 5 mM concentration.
An Olympus MVX10 Fluorescence Macroscope (Olympus, Center Valley, Pa., United States of America) equipped with a Hamamatsu C9300-221 high-speed digital CCD camera (Hamamatsu City, Japan) was used for fluorescence microscopy. Tg(gstp1:GFP) fluorescent embryos were anaesthetized in tricaine and imaged at 2 dpf. MetaMorph Basic software (Olympus, Center Valley, Pa., United States of America) was used for image acquisition and analysis.
Quantification of Nrf2 Reporter Activity by Tg(gstp1:
GFP) Fluoresence in Zebrafish Model. The fluorescence intensity of the olfactory neural epithelia was quantitated using MetaMorph Basic software. In brief, GFP expression in the olfactory regions of Tg(gstp1:GFP) embryos treated with various chemicals was measured after 24-hour treatment from 1 dpf to 2 dpf. The GFP induction was detectable by fluorescence signal at the area of the olfactory epithelia in the anterior of the head region, the intensity was measured using an area of a circle of 60 pixel diameter of the fluorescence olfactory epithelia subtracted by a background non-fluorescence area next to the zebrafish embryo. Both the left and right olfactory epithelia were measured to give an average fluorescence value. The values are an average of measurements from at least 10 embryos.

heme oxygenase-1 (HO-1) = experiment: Western blotting of HO-1 expression in CCD 841 CoN cells; format: cell-based, human
Description: Human normal colonic epithelial cells (CCD 841 CoN) were grown in Eagle's Minimum Essential Medium with 10% fetal bovine serum and 1% penicillin/streptomycin, and maintained at 37° C. in a 100% humidified atmosphere of 5% CO2 and 95% air. Fresh growth medium was added to the cells every two days until confluent. Cells were planted in 145×20 mm flat-bottomed tissue culture dishes and growth to 70-80% confluence and then treated with compound 27 for various doses and time points. At the end of incubation period, cell lysates were prepared in ice-cold Cell Lysis Buffer (Cell Signaling, Danvers, Mass., United States of America) with 1% protease inhibitor cocktail and 1% phenylmethylsulfonyl fluoride (Sigma, St. Louis, Mo., United States of America). Protein concentrations were measured using BCA Protein Assay Kit (Thermo Scientific, Rockford, Ill., United States of America). […] The bound complexes were detected with SuperSignal Chemiluminescent Substract (Thermo Scientific, Rockford, Ill., United States of America). The immunoblot bands were quantified by densitometry analysis, and the ratio to β-actin was calculated and presented.

SMILES: CCCCCCCC(=O)/C=C/c1ccc(O)c(O)c1 [Compound 27]
- Ratio/CTL, Tg(gstp1:GFP) fluorescence signal (Nrf2): 9.19 and 9.19 ± 0.12
- HO-1 expression, time dependence (heme oxygenase-1 (HO-1); 10 μM for 3, 6, 12 and 24 h, vs control (0 h)): significantly increased HO-1 expression; also recorded: increased HO-1 expression in a time-dependent manner
- HO-1 protein expression, dose dependence (heme oxygenase-1 (HO-1); 5, 10 and 20 μM for 24 h, vs untreated control): significantly increased HO-1 protein expression; also recorded: increased HO-1 expression in a dose-dependent manner
